A word on the IC50: it is the concentration at which inhibition is half-maximal.

Assay [1] concerns the target CDK2 (Homo sapiens, UniProt P24941). Nature of the assay: CDK2 inhibition. In kind it is biochemical. The following applies: two numbers = two different lots of the compound.
In assay [2] the target is HDAC 1 (Homo sapiens, UniProt Q13547). Nature of the assay: HDAC 1 fluorescence assay with about 3 hours preincubation. In kind it is biochemical. Conditions: 3-hour preincubation of enzyme and compound; two numbers = two different lots of the compound; read-out: HDAC 1 inhibitory activity (IC50 [μM]) (3-hour preincubation). The protocol:
The second assay is similar to the first assay described above, except that preincubation is carried out for about 3 hours after the enzyme is introduced. The test compound was suspended in, and titrated in DMSO. It was then spotted into a 384-well test plate. The enzyme, HDAC 1, was diluted in the same assay buffer as used in the previous assay and added to the pre-spotted compound. The enzyme/compound mix was incubated at room temperature for about 3 hours. The peptide substrate containing a fluorophore/quencher pair was diluted in the assay buffer and added to the compound/enzyme mix initiating the reaction. The reaction incubated at room temperature for 45 minutes. A concentrated developer solution was diluted in the assay buffer, and added to the reaction. The reaction was incubated at room temperature for about 15 minutes and relative fluorescence was read on an instrument reader.
Where two numbers are given, the values are reported for measurements on two different lots of the compound.

Several values for one entry are separate records, joined by “and”; a condition that tells them apart may be missing. Equal values may be shown once. Bounds are passed on as bounds.

HDAC 1, sequence (Q13547 whole entry, species assumed): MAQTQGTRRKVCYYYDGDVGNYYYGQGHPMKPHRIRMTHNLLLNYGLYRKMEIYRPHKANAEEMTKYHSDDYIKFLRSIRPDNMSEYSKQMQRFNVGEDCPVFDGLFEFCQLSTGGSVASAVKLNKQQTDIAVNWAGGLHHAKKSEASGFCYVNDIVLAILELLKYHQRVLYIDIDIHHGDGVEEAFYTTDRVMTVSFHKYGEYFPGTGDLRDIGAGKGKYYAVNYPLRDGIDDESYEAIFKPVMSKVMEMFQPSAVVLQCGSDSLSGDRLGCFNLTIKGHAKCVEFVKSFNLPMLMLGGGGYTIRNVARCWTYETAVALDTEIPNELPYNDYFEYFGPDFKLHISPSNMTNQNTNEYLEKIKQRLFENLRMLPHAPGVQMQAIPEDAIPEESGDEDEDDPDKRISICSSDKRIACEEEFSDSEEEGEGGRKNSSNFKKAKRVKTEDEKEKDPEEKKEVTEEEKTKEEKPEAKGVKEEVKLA

As for `COC(=O)c1ccc2c(c1)/C(=C(\C)Nc1ccc(C(=O)Nc3ccccc3N)cc1)C(=O)N2` [Example 1, 3-{1-[4-(2-Amino-phenylcarbamoyl)-phenylamino]-ethylidene}-2-oxo-2,3-dihydro-1H-indole-5-carboxylic acid methyl ester], the IC50 in assay [1] was 0.043 µM; in assay [2] it was 0.033 µM.
The corresponding values for `COC(=O)c1ccc2c(c1)/C(=C/Nc1ccc(C(=O)Nc3ccccc3N)cc1)C(=O)N2` [Example 2, 3-{[4-(2-Amino-phenylcarbamoyl)-phenylamino]-methylene}-2-oxo-2,3-dihydro-1H-indole-5-carboxylic acid methyl ester] are 0.07 µM and 0.17 µM.
Take `C/C(Nc1ccc(C(=O)Nc2ccccc2N)cc1)=C1/C(=O)Nc2ccc(C#N)cc21` [Example 3, N-(2-Amino-phenyl)-4-[1-(5-cyano-2-oxo-1,2-dihydro-indol-3-ylidene)-ethylamino]-benzamide]: the IC50 in assay [1] is 0.01 µM and 0.02 µM; in assay [2], 0.029 µM and 0.021 µM.
For the molecule `CC(=O)c1ccc2c(c1)/C(=C(\C)Nc1ccc(C(=O)Nc3ccccc3N)cc1)C(=O)N2` [Example 4, 4-[1-(5-Acetyl-2-oxo-1,2-dihydro-indol-3-ylidene)-ethylamino]-N-(2-amino-phenyl)-benzamide], the IC50 is 0.01 µM in assay [1]; 0.064 µM and 0.03 µM in assay [2].
With `C/C(Nc1ccc(C(=O)Nc2ccccc2N)cc1)=C1/C(=O)Nc2ccc(C(=O)C(C)C)cc21` [Example 5, N-(2-Amino-phenyl)-4-[1-(5-isobutyryl-2-oxo-1,2-dihydro-indol-3-ylidene)-ethylamino]-benzamide], the concentration for half-maximal inhibition (IC50) in assay [1] came to 0.02 µM; in assay [2], 0.335 µM.
The corresponding values for `C/C(Nc1ccc(C(=O)Nc2ccccc2N)cc1)=C1/C(=O)Nc2ccc(S(=O)(=O)N3CCOCC3)cc21` [Example 6, N-(2-Amino-phenyl)-4-{1-[5-(morpholine-4-sulfonyl)-2-oxo-1,2-dihydro-indol-3-ylidene]-ethylamino}-benzamide] are 0.52 µM and 0.186 µM.
As to `C/C(Nc1ccc(C(=O)Nc2ccccc2N)cc1)=C1/C(=O)Nc2ccc(-c3csc(C)n3)cc21` [Example 7, N-(2-Amino-phenyl)-4-{1-[5-(2-methyl-thiazol-4-yl)-2-oxo-1,2-dihydro-indol-3-ylidene]-ethylamino}-benzamide], the IC50 was above 40 µM in assay [1] and 0.232 µM in assay [2].
For `CC(Nc1ccc(C(=O)Nc2ccccc2N)cc1)=C1C(=O)Nc2ccc(S(C)(=O)=O)cc21` [Example 8, N-(2-Amino-phenyl)-4-[1-(5-methanesulfonyl-2-oxo-1,2-dihydro-indol-3-ylidene)-ethylamino]-benzamide] the same measures were 0.13 µM and 0.1 µM.
Regarding `CN(C)CCNC(=O)c1ccc2c(c1)/C(=C/Nc1ccc(C(=O)Nc3ccccc3N)cc1)C(=O)N2` [Example 9, 3-{[4-(2-Amino-phenylcarbamoyl)-phenylamino]-methylene}-2-oxo-2,3-dihydro-1H-indole-5-carboxylic acid (2-dimethylamino-ethyl)-amide], the figures for the IC50 in assay [1] and in assay [2] were 0.25 µM and 0.063 µM, respectively.
For `C/C(Nc1ccc(C(=O)Nc2ccccc2N)cc1)=C1/C(=O)Nc2ccc(C(=O)O)cc21` [Example 10, 3-{1-[4-(2-Amino-phenylcarbamoyl)-phenylamino]-ethylidene}-2-oxo-2,3-dihydro-1H-indole-5-carboxylic acid] the same measures were 0.44 µM and 0.181 µM.
The corresponding values for `COC(=O)c1ccc2c(c1)/C(=C(\C)Nc1ccc(C(=O)NO)cc1)C(=O)N2` [Example 11, 3-[1-(4-Hydroxycarbamoyl-phenylamino)-ethylidene]-2-oxo-2,3-dihydro-1H-indole-5-carboxylic acid methyl ester] are above 40 µM and 0.635 µM.
The corresponding values for `C/C(Nc1ccc(C(=O)Nc2ccccc2N)cc1)=C1/C(=O)Nc2ccc(C(=O)N(C)C)cc21` [Example 12, 3-{1-[4-(2-Amino-phenylcarbamoyl)-phenylamino]-ethylidene}-2-oxo-2,3-dihydro-1H-indole-5-carboxylic acid dimethylamide] are 0.34 µM and 0.071 µM.
`C/C(Nc1ccc(C(=O)Nc2ccccc2N)cc1)=C1/C(=O)Nc2ccc(C(C)O)cc21` (centres unmarked) [Example 13, N-(2-Amino-phenyl)-4-{1-[5-(1-hydroxy-ethyl)-2-oxo-1,2-dihydro-indol-3-ylidene]-ethylamino}-benzamide]: the IC50 was found to be 1.01 µM in assay [1] and 0.036 µM in assay [2].

Source of the values: patent US8344018B2, “Oxindolyl inhibitor compounds” (Gilead Sciences, Inc., priority 2008, dated 2013).
